Measurements from paper PMC4147587, “Synthesis and Analgesic Effects of μ-TRTX-Hhn1b on Models of Inflammatory and Neuropathic Pain” (Toxins, 2014).
Where two headings read alike, the source gives them in different places. No end group written: not given here.

How the values were obtained:
[1] = system: inherited erythromelalgia (IEM); details: patients; cited from earlier work
Source text: (§1) Voltage-gated sodium channels (VGSCs) are essential for the initiation and propagation of action potentials in excitable tissues, such as nerves and muscles. Considerable in vivo and in vitro studies indicate that VGSCs play a key role in neuropathic and inflammatory pain, which begins with the aberrant firing of action potential bursts in damaged neuronal tissue. Of the nine subtypes of VGSCs identified to date and designated as Nav1.1–1.9, Nav1.3, 1.7, 1.8 and 1.9 play specialized roles in nociceptive pathways and are considered ideal targets for the development of analgesi ...

[2] = system: motor coordination of rats (latency to fall off the rotarod); format: in vivo, rat (Sprague-Dawley); details: rat, in vivo
Method: Motor activity was assessed using a rotarod apparatus for rats (Coulbourn Instruments, Lehigh Valley, PA, USA). The rotarod might be set at any speed from 0 to 50 rpm. For motor coordination assessment, rats were trained for 2 days by walking them each day on an accelerating rotarod from 4 to 40 rpm for 10 min. […] Motor performance was considered as the latency to fall off the rotarod apparatus determined from the mean time in three trials for each rat at each time.

[3] = system: rat models of neuropathic pain; details: 37.5 mg/kg i.p., cited from earlier work
Source text: A total of 30 rats with mechanical allodynia were divided into five groups randomly.

[4] = system: paroxysmal extreme pain disorder (PEPD); details: patients; cited from earlier work
Source text: as §1

[5] = system: formalin-induced pain behaviors in rats; assay: formalin-induced inflammatory rat model; format: in vivo, rat (Sprague-Dawley); details: rat, in vivo, ip
Method: Acute and chronic nociceptive responses were measured using the rat paw formalin test as descried by Dubission and modified by Malmberg. Adult Sprague-Dawley rats (male, weighing 180–220 g) were used for this behavioral test. During the test, each rat was placed into open polyvinyl cages (30 cm × 40 cm × 30 cm) and at least 30 min before administration of the toxin. All agents were administered 30 min prior to s.c. intraplantar formalin injection. A volume of 50 μL formalin (5%) solution was used as previously described and injected into the plantar surface of one hind paw. Lifting, favoring, licking, shaking and flinching of the injected paw were recorded as nociceptive responses. The total time of the nociceptive response was measured every 5 min and […] (mean ± SEM). Recording of nociceptive behavior commenced immediately after formalin injection and was continued for 40 min.

human Nav1.7 = target: T1, human Nav1.7 (Homo sapiens, UniProt Q15858); assay: whole-cell patch clamp, human Nav1.7 transiently expressed in HEK 293 cells; format: cell-based; details: comparison group printed as "native toxin group"
T1 construct: expressed in transfected cells; host or cells: HEK293 cells, transient transfection with Lipofectamine 2000
Source text: Figure 2 Inhibitory effect of synthetic μ-TRTX-Hhn1b on Nav1.7 expressed on HEK 293 cells. […] (B) The inhibition of μ-TRTX-Hhn1b on Nav1.7 was dose-dependent. […] Data are plotted as a fraction of the maximum conductance. The voltage-dependence of steady-state inactivation was estimated using a standard double-pulse protocol, in which a 20-ms depolarizing test potential of 0 mV followed a 500-ms prepulse at potentials that ranged from −130 to −10 mV with a 10-mV increment. Cells were held at −100 mV.
A human Nav1.7 channel plasmid (accession No. NM_002977) and a plasmid for green ﬂuorescent protein were transiently transfected into human embryonic kidney 293 (HEK293) cells using Lipofectamine 2000 (Invitrogen, Carlsbad, CA, USA) according to the manufacturer’s instructions. HEK293 cells were grown under standard tissue culture conditions (5% CO2; 37 °C) in DMEM supplemented with 10% FBS. The β1 subunit was cotransfected with the Nav1.7 channel to increase the current density. Cells with green ﬂuorescence were selected for whole-cell patch-clamp recording at 36–72 h after transfection. Patch-clamp experiments were performed at room temperature. Suction pipettes (2.0–3.0 MΩ) were made from borosilicate glass capillary tubes using a two-step vertical micropipette puller. The pipette solution contained (in mM): CsCl 145, MgCl2∙6H2O 4, HEPES 10, EGTA 10, glucose 10, ATP 2 (pH 7.2). The external solution contained (in mM): NaCl 145, KCl 2.5, CaCl2 1.5, MgCl2.6H2O 1.2, HEPES 10, glucose 10 (pH 7.4). Experimental data were collected and analyzed using the program Pulse/Pulsefit 8.0 (HEKA Electronics, Pfalz, Germany). Macroscopic sodium currents were filtered at 5 kHz and digitized at 20 kHz with an EPC-9 patch-clamp amplifier (HEKA Electronics, Pfalz, Germany). Series resistance was kept near 5 MΩ and compensated to 65%–70%; linear capacitative and leakage currents were digitally subtracted using the P/4 protocol.

Nav1.7 = details: native toxin; ref 27 (unpublished work, 2014); cited from earlier work
Source text: μ-TRTX-Hhn1b (HNTX-IV) is a 35-residue peptide from tarantula Ornithoctonus hainana (Haplopelma hainanum) venom. The amino acid sequence is […]. The peptide amidated at its C-terminal has a high proportion of basic residues and is crosslinked by three disulfide bonds.

[6] = system: Nav1.2, Nav1.3, Nav1.4, Nav1.5, Nav1.7; details: native toxin; ref 27 (unpublished work, 2014); cited from earlier work

T1 sequence (Q15858 other isoform, or with tags, fused parts or gaps): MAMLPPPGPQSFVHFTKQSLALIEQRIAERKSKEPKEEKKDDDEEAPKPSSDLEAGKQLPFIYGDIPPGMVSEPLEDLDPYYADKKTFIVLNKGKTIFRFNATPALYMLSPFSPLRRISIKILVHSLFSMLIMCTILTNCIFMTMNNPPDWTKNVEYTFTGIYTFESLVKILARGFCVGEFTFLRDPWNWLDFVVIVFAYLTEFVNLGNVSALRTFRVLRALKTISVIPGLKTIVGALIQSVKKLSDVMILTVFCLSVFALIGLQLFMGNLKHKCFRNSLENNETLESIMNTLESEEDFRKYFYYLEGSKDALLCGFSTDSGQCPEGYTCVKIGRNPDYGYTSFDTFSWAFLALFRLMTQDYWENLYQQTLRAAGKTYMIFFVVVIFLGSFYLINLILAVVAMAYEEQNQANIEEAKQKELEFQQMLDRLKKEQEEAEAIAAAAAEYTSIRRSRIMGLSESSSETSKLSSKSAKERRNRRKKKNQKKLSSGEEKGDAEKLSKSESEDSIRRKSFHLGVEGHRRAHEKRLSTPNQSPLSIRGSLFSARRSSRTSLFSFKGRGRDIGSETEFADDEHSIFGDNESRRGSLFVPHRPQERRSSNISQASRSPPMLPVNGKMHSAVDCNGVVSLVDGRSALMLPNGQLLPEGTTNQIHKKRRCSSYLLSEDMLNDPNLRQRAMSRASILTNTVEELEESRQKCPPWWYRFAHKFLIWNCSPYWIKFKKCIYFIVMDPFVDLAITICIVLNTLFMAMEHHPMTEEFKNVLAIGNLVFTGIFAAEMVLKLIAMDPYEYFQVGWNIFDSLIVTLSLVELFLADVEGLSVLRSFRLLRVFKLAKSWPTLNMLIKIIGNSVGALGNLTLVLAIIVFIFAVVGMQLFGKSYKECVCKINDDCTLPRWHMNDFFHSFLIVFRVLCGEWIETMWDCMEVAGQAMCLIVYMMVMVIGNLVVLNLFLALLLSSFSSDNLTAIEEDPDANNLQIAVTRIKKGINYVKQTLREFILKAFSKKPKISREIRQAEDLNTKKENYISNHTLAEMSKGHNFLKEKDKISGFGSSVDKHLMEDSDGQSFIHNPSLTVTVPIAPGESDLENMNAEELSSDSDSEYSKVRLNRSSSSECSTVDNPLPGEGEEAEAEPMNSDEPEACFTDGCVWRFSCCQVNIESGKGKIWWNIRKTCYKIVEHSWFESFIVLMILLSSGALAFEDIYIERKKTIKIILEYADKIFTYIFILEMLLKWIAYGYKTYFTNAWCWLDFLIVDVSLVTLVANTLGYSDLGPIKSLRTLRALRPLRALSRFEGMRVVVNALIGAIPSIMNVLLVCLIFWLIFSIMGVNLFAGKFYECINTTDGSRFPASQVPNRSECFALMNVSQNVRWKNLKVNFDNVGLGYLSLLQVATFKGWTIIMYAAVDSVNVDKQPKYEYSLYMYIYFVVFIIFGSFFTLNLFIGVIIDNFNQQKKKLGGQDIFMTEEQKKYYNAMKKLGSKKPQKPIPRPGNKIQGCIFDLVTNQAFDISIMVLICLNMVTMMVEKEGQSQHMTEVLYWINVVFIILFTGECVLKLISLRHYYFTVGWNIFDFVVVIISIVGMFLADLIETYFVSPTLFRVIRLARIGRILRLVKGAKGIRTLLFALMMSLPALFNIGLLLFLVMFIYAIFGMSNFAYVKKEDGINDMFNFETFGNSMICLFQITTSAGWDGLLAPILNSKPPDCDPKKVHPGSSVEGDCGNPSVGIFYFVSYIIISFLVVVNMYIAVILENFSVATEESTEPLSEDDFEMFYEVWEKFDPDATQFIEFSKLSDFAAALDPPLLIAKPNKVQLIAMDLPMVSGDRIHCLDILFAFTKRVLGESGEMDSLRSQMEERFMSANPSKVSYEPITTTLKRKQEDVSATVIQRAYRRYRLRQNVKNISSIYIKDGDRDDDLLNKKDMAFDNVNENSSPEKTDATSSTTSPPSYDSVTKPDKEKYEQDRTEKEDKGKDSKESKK
T1 sequence (Q07699 19-218, further chain): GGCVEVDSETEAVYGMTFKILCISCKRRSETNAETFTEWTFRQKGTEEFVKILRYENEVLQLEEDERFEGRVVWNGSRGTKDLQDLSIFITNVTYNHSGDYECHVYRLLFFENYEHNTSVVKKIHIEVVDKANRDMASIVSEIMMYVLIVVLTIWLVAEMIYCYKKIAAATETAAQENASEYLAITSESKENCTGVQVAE

For `CCN(CC)CC(=O)Nc1c(C)cccc1C` [lidocaine], the “treatment of IEM” value [1] is listed as “very ineffective”.

In the case of `Cc1cccc(C)c1OCC(C)N` (centres unmarked) [mexiletine], the “latency to fall off the rotarod” value [2] is listed as “significant latency reduction”, the “withdrawal threshold to von Frey hair” value ([3]; 15 min after injection) is listed as “significantly increased the withdrawal threshold” and the “withdrawal threshold to von Frey hair” value ([3]; 45 min after injection) is listed as “returned to a level non-significantly different from the baseline and vehicle”. For the same compound, the “treatment of IEM” value [1] was “very ineffective”.

For `NC(=O)N1c2ccccc2C=Cc2ccccc21` [carbamazepine], the “control of PEPD” value [4] is given as “well controlled”.

Work on `CN1CC[C@]23c4c5ccc(O)c4O[C@H]2[C@@H](O)C=C[C@H]3[C@H]1C5` [morphine, reference compound] yielded a pain score [5] of 225.0 ± 55.8 s.

In the case of “ECLGFGKGCNPSNDQCCKSSNLVCSRKHRWCKYEI (disulfide (positions not given here)) [native μ-TRTX-Hhn1b, reference compound]”, the “half-activation voltage of Nav1.7” value (human Nav1.7) is listed as −20.5 ± 0.2 mV, the “half-inactivation voltage of Nav1.7” value (human Nav1.7) is listed as −42.6 ± 0.2 mV and the IC50 (Nav1.7) is listed as roughly 21 nM. The subtype preference [6] was “preferentially inhibited Nav1.2, Nav1.3 and Nav1.7 compared with Nav1.4 and Nav1.5; Nav1.7 was the most sensitive channel”.
